Experiment [1] deals with T1, AR (L702H) in LNCaP cells (Homo sapiens, UniProt P10275, L702H/T878A).
T1 construct: engineered to introduce the mutation L702H into the AR gene using CRISPR/Cas9; endogenous in cells; host or cells: LNCaP cells edited by CRISPR/Cas9 at the AR gene
Nature of the experiment: LNCaP Androgen Receptor L702H Imaging Assay (LNCaP cells engineered by CRISPR/Cas9). The class given is cell-based. The following applies: LNCaP cells with AR L702H mutation, 24 h incubation; for DC50: concentration giving 50% of maximum degradation of AR (L702H) per curve fit; for LNCaP AR (L702H) Degradation Dmax / Dmax: maximum degradation observed, normalized as % of positive control; for Dmax: LNCaP. As to the method: (§1) All work was performed in a sterile tissue culture hood up to the point of cell fixation. LNCaP cells were cultured at 6-8×10^6 per T175 flask and split every 3-4 days. Medium: RPMI (R7638, VWR Sigma) containing 10% FCS and 1% glutamine. Cells were plated in black wall transparent bottom plates at a density of 12,000 cells (Cedex™ Cell counter, Beckmann & Coulter), 40 μL per well, using a Multidrop (ThermoFisher).
(§2) Cells were dosed with test compound diluted in DMSO using an Echo 555/655™ (Labcyte) and the final concentration of DMSO in the well was 0.3%. A neutral control (DMSO) and a positive AR degrader control at 3 μM (a prior art AR PROTAC) were included. The Echo uses acoustic technology to perform direct microplate-to-microplate transfers of DMSO compound solutions to assay plates. The system can be programmed to transfer volumes as low as 2.5 nL in multiple increments between microplates and in so doing generates a serial dilution of compound in the assay plate which is then back-filled to normalise the DMSO concentration across the dilution range. Compounds were dispensed as a 12 point dose response with indicated concentrations. The plates were incubated at 37° C./5% CO2 for 24 h and then fixed and stained as below. 40 μL of 8% paraformaldehyde solution (v/v) in phosphate buffered saline (PBS) was added on top of the media already in the well using a Multidrop to fix plates giving a final concentration of 4% PFA (v/v) for 20-30 minutes (keep in fume hood to minimise PFA exposure). After 20-30 mins, the plates were washed with 3×PBS using a BioTek washer in a fume hood. A shake out of remaining volume in the well was performed to ensure best removal of remaining PBS. At this plates could be stored in PBS after washing for at least 3 days at 4° C., if so, PBS was removed by the BioTek before continuing with the next step.
(§3) The cells were incubated with a Mouse monoclonal Anti-AR antibody AR441 (DAKO M3562) (1:1000), diluted in modified blocking buffer (PBS+1% BSA+0.1% TritonX); 15 μL/well for 2 h at RT. The plates were then washed with 3×PBS using a BioTek washer. A shake out of remaining volume in the well was performed to ensure best removal of remaining PBS. Cells were then incubated with Goat anti-mouse secondary antibody 488 (Invitrogen A11001) (1:500) and nuclear stain, DRAQ5 (Abcam Ab108410) (1:2000) diluted in modified blocking buffer for 45 mins at room temperature 15 μL/well. Plates are then washed with 3×PBS using a BioTek washer, without final aspiration, and sealed with black plate seals. Plates could be stored after staining for three days at 4° C. before read if required.
(§4) Plates are read using a Cellomics Cellinsight to measure the Androgen Receptor level in each well. The data is exported into Genedata to perform curve fitting analysis. All data are normalized as % of positive control and the BellFit method automatically determines the correct fit method based on the presence of hook effect, choosing the BellFit when there is a hook and HillFit when there is no hook. Down-regulation of AR is expressed as a DC50 value and determined by calculation of the concentration of compound that is required to give 50% of maximum degradation of AR as per the curve fit for that compound. The maximum degradation observed for each compound is expressed as Dmax. The AR degradation data for compounds is shown in the table below and may be a result from a single experiment or an average of two or more experiments.
At this stage, anti-androgen therapy is largely ineffective due to AR amplification, overexpression or point mutation. One of the point mutations observed in patient populations is L702H in the AR Ligand Binding Domain. LNCAP cells have been engineered to introduce the mutation L702H into the AR gene using CRISPR/Cas9. The previously described imaging-based AR assay will monitor nuclear AR (L702H) levels in these cells to identify compounds that regulate AR (L702H). […]

Experiment [2] concerns the target T2, AR (AR-full length) in LNCaP cells (Homo sapiens, UniProt P10275, T878A).
T2 construct: the prostate cancer cell line LNCaP (expressing AR-full length); endogenous in cells; host or cells: LNCaP
Kind of experiment: LNCaP Androgen Receptor Imaging Assay (immunofluorescence of endogenous nuclear AR). Format: cell-based. The settings on record: 24 h incubation; for DC50: concentration giving 50% of maximum degradation of AR per curve fit, single experiment or average of two or more; for LNCaP AR Degradation Dmax / Dmax: maximum degradation observed, normalized as % of positive control (prior art AR PROTAC at 3 μM); for Dmax: LNCaP. As to the method:
This cell-based imaging assay uses immuno-fluorescence to measure endogenous nuclear AR staining in the prostate cancer cell line LNCaP (expressing AR-full length). The purpose of the assay is to identify compounds that regulate AR protein level according to the protocol laid out in the steps below.
as §1, §2, §3, §4

T2 sequence (P10275 whole entry T878A): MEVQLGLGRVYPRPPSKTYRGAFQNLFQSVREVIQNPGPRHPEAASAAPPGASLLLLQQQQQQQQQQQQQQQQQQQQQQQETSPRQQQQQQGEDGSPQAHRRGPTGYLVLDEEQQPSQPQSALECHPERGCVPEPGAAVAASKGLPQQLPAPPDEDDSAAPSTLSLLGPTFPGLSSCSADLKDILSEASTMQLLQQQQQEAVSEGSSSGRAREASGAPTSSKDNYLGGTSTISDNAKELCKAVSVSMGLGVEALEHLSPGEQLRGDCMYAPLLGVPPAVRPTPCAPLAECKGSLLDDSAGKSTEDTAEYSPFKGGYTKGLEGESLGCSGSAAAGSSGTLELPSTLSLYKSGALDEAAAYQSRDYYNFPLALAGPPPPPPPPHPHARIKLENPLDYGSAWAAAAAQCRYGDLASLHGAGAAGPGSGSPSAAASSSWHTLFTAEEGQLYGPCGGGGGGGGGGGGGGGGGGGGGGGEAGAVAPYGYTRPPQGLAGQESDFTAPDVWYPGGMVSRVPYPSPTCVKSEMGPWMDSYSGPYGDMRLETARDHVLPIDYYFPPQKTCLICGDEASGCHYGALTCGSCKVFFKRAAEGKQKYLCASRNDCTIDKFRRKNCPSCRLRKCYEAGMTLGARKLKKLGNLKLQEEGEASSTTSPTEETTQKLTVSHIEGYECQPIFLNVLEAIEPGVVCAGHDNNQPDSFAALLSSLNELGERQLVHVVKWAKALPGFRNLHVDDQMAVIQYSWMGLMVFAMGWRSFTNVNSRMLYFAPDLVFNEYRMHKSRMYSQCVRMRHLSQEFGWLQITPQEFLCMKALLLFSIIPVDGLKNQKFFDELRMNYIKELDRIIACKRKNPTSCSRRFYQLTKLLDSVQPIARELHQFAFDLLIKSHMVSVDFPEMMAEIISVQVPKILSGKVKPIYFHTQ
T2 sequence (Q96SW2 whole entry partner): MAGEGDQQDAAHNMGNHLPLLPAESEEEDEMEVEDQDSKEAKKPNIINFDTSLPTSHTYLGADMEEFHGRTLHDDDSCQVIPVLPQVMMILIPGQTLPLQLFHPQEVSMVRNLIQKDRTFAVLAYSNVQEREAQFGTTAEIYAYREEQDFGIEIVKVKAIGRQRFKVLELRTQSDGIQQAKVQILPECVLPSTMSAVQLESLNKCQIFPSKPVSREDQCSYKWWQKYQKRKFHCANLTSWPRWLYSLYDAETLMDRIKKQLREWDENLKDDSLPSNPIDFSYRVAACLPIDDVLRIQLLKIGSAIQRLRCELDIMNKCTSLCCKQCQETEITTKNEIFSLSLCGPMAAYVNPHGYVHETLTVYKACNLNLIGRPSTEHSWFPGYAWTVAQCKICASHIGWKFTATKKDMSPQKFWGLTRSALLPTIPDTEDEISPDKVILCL
T1 sequence (P10275 whole entry L702H/T878A): as the sequence (P10275 whole entry T878A) above, with L702H counted along it
T1 sequence (Q96SW2 whole entry partner): as the sequence (Q96SW2 whole entry partner) above

`COc1nc(N2CCN(CC3CCN(c4ccc([C@@H]5CCCN(c6ccc(Cl)c7c(C#N)c[nH]c67)C5)cc4)CC3)CC2)cc2c1C(=O)N(C1CCC(=O)NC1=O)C2` (single isomer, unassigned) [Example 40, 4-Chloro-7-[(3S)-3-(4-{4-[(4-{2-[(3S*)-2,6-dioxopiperidin-3-yl]-4-methoxy-3-oxo-2,3-dihydro-1H-pyrrolo[3,4-c]pyridin-6-yl}piperazin-1-yl)methyl]piperidin-1-yl}phenyl)piperidin-1-yl]-1H-indole-3-carbonitrile]: in experiment [1], it took 12 nM to reach half-maximal degradation (DC50) and the “LNCaP AR (L702H) Degradation Dmax” value worked out at 106%. In addition, in experiment [2], it took 7 nM to reach half-maximal degradation (DC50) and the “LNCaP AR Degradation Dmax” value is given as 105%.

On to `N#Cc1c[nH]c2c(N3CCCC(c4ccc(N5CCC(CN6CCC(n7ccc8c(N9CCC(=O)NC9=O)cccc87)CC6)CC5)cn4)C3)ccc(Cl)c12` (single isomer, unassigned) [Example 65, 4-Chloro-7-[(3R*)-3-{5-[4-({4-[4-(2,4-dioxo-1,3-diazinan-1-yl)-1H-indol-1-yl]piperidin-1-yl}methyl)piperidin-1-yl]pyridin-2-yl}piperidin-1-yl]-1H-indole-3-carbonitrile], for which, in experiment [1], half-maximal degradation (DC50) was put at 798 nM and the Dmax is 78%. Also, in experiment [2], half-maximal degradation (DC50) was put at 9 nM and the Dmax turned out to be 96%.

On to `N#Cc1c[nH]c2c(N3CCCC(c4ccc(N5CCC(CN6CCC(n7ccc8c(N9CCC(=O)NC9=O)cccc87)CC6)CC5)cn4)C3)ccc(Cl)c12` (single isomer, unassigned) [Example 66, 4-Chloro-7-[(3S*)-3-{5-[4-({4-[4-(2,4-dioxo-1,3-diazinan-1-yl)-1H-indol-1-yl]piperidin-1-yl}methyl)piperidin-1-yl]pyridin-2-yl}piperidin-1-yl]-1H-indole-3-carbonitrile], for which, in experiment [1], the DC50 came out at 22 nM and the “LNCaP AR (L702H) Degradation Dmax” value turned out to be 94%. In experiment [2], the DC50 is 10 nM and the “LNCaP AR Degradation Dmax” value stood at 97%.

Take `Cc1ccc(C2CCCN(c3ccc(OCCCCN4CCN(c5ccc6c(c5)CN(C5CCC(=O)NC5=O)C6=O)CC4)cc3)C2)c2[nH]cc(C#N)c12` (single isomer, unassigned) [Example 78, 7-{(3R*)-1-[4-(4-{4-[2-(2,6-dioxopiperidin-3-yl)-1-oxo-2,3-dihydro-1H-isoindol-5-yl]piperazin-1-yl}butoxy)phenyl]piperidin-3-yl}-4-methyl-1H-indole-3-carbonitrile]: in experiment [1], it took 3100 nM to reach half-maximal degradation (DC50) and the “LNCaP AR (L702H) Degradation Dmax” value stood at 100%. In experiment [2], the half-maximal degradation concentration (DC50) stood at 1370 nM and the “LNCaP AR Degradation Dmax” value turned out to be 70%.

With `Cc1ccc(C2CCCN(c3ccc(OCCCCN4CCN(c5ccc6c(c5)CN(C5CCC(=O)NC5=O)C6=O)CC4)cc3)C2)c2[nH]cc(C#N)c12` (single isomer, unassigned) [Example 79, 7-{(3S*)-1-[4-(4-{4-[2-(2,6-dioxopiperidin-3-yl)-1-oxo-2,3-dihydro-1H-isoindol-5-yl]piperazin-1-yl}butoxy)phenyl]piperidin-3-yl}-4-methyl-1H-indole-3-carbonitrile], in experiment [1], half-maximal degradation (DC50) was put at 21 nM and the “LNCaP AR (L702H) Degradation Dmax” value worked out at 79%. In experiment [2], half-maximal degradation (DC50) was put at 9 nM and the “LNCaP AR Degradation Dmax” value is listed as 92%.

`Cc1ccc(C2CCCN(c3cccc(OCCCCN4CCN(c5ccc6c(c5)CN(C5CCC(=O)NC5=O)C6=O)CC4)c3)C2)c2[nH]cc(C#N)c12` (single isomer, unassigned) [Example 80, 7-{(3R*)-1-[3-(4-{4-[2-(2,6-dioxopiperidin-3-yl)-1-oxo-2,3-dihydro-1H-isoindol-5-yl]piperazin-1-yl}butoxy)phenyl]piperidin-3-yl}-4-methyl-1H-indole-3-carbonitrile]: the DC50 in experiment [1] was determined as 3100 nM; in experiment [2], 38 nM. In addition, the maximal degradation (Dmax) in experiment [1] turned out to be 100%; in experiment [2] it was 64%.

For `Cc1ccc(C2CCCN(c3cccc(OCCCCN4CCN(c5ccc6c(c5)CN(C5CCC(=O)NC5=O)C6=O)CC4)c3)C2)c2[nH]cc(C#N)c12` (single isomer, unassigned) [Example 81, 7-{(3S*)-1-[3-(4-{4-[2-(2,6-dioxopiperidin-3-yl)-1-oxo-2,3-dihydro-1H-isoindol-5-yl]piperazin-1-yl}butoxy)phenyl]piperidin-3-yl}-4-methyl-1H-indole-3-carbonitrile], in experiment [1], the half-maximal degradation concentration (DC50) came out at 3100 nM and the “LNCaP AR (L702H) Degradation Dmax” value amounted to 100%. In experiment [2], this compound gave a half-maximal degradation concentration (DC50) greater than 3000 nM.

For the compound `Cc1ccc(C2CCCN(c3ccc(N4CCC(CN5CCN(c6ccc7c(c6)CN(C6CCC(=O)NC6=O)C7=O)CC5)CC4)cc3)C2)c2[nH]cc(C#N)c12` (single isomer, unassigned) [Example 82, 7-[(3R*)-1-{4-[4-({4-[2-(2,6-dioxopiperidin-3-yl)-1-oxo-2,3-dihydro-1H-isoindol-5-yl]piperazin-1-yl}methyl)piperidin-1-yl]phenyl}piperidin-3-yl]-4-methyl-1H-indole-3-carbonitrile], in experiment [1], the half-maximal degradation concentration (DC50) came out at 22 nM and the maximal degradation (Dmax) worked out at 91%. In experiment [2], this compound had a 50% degradation concentration (DC50) of 31 nM and a Dmax of 90%.

`Cc1ccc(C2CCCN(c3ccc(N4CCC(CN5CCN(c6ccc7c(c6)CN(C6CCC(=O)NC6=O)C7=O)CC5)CC4)cc3)C2)c2[nH]cc(C#N)c12` (single isomer, unassigned) [Example 83, 7-[(3S*)-1-{4-[4-({4-[2-(2,6-dioxopiperidin-3-yl)-1-oxo-2,3-dihydro-1H-isoindol-5-yl]piperazin-1-yl}methyl)piperidin-1-yl]phenyl}piperidin-3-yl]-4-methyl-1H-indole-3-carbonitrile]: in experiment [1], the DC50 was greater than 3000 nM. In experiment [2], the half-maximal degradation concentration (DC50) was 3100 nM and the “LNCaP AR Degradation Dmax” value amounted to 100%.

In experiment [1], `COc1nc(N2CCN(CC3CCN(c4ccc(N5CCCC(c6ccc(Cl)c7c(C#N)c[nH]c67)C5)cc4)CC3)CC2)cc2c1C(=O)N(C1CCC(=O)NC1=O)C2` (single isomer, unassigned) [Example 91, 4-Chloro-7-[(3R*)-1-{4-[4-({4-[2-(2,6-dioxopiperidin-3-yl)-4-methoxy-3-oxo-2,3-dihydro-1H-pyrrolo[3,4-c]pyridin-6-yl]piperazin-1-yl}methyl)piperidin-1-yl]phenyl}piperidin-3-yl]-1H-indole-3-carbonitrile] came in with a 50% degradation concentration (DC50) of 10 nM and a Dmax of 99%. In experiment [2], half-maximal degradation (DC50) was put at 23 nM and the Dmax was determined as 100%.

By DC50 is commonly meant the concentration giving 50% degradation. Read a low DC50 as degradation at low concentration. For orientation: Dmax means the greatest extent of degradation seen. A high value points to deep degradation.
